The results in this text go back to patent US20230219979A1, “PYRAZOLO[1,5-a]PYRIDINE COMPOUND, PREPARATION METHOD THEREFOR AND USE THEREOF” (SHENZHEN ZHONGGE BIOLOGICAL TECHNOLOGY CO., LTD., priority 2019, published 2023).

The target in one assay is Wild-type RET kinase (Homo sapiens, UniProt P07949). Briefly: HTRF method for testing the inhibitory activity of compounds against RET. The assay is classed as biochemical. A general note: Time-resolved FRET reads energy transfer from a long-lived donor to a nearby acceptor.
Sequence of Wild-type RET kinase (P07949 29-1114): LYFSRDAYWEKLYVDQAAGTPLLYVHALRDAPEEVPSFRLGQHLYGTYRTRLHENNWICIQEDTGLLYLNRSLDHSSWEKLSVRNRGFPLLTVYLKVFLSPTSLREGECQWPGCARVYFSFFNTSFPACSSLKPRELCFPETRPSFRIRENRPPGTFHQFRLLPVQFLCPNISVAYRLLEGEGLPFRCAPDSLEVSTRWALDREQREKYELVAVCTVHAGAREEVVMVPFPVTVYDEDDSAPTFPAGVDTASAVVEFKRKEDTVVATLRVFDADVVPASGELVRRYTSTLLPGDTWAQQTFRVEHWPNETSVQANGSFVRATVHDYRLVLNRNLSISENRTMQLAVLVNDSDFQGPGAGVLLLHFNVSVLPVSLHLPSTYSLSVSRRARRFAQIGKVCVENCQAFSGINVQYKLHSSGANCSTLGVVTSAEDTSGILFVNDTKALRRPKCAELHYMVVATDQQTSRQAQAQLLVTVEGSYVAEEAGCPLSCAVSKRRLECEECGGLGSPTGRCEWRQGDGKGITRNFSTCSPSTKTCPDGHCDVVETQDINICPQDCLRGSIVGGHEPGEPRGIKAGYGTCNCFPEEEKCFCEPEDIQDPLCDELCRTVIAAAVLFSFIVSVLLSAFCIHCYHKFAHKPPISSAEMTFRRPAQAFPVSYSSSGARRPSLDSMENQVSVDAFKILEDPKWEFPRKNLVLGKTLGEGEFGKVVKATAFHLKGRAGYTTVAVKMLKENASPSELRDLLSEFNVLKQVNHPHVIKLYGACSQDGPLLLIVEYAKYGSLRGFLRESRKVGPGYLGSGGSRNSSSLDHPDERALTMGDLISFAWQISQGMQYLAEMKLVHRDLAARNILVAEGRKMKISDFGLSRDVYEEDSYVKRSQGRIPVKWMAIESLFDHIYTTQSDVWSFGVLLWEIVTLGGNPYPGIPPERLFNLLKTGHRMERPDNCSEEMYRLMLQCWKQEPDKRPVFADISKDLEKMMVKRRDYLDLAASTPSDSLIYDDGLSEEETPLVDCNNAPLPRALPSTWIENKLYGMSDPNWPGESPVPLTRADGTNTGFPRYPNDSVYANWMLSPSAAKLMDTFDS
For a further assay, the target named is T1, Ba/F3-KIF5B-RET cell (Homo sapiens, UniProt P07949).
T1 construct: fused on or other part: P33176 (Kinesin-1 heavy chain)
T1 sequence (P07949 whole entry, change not shown, the tested form may be a part): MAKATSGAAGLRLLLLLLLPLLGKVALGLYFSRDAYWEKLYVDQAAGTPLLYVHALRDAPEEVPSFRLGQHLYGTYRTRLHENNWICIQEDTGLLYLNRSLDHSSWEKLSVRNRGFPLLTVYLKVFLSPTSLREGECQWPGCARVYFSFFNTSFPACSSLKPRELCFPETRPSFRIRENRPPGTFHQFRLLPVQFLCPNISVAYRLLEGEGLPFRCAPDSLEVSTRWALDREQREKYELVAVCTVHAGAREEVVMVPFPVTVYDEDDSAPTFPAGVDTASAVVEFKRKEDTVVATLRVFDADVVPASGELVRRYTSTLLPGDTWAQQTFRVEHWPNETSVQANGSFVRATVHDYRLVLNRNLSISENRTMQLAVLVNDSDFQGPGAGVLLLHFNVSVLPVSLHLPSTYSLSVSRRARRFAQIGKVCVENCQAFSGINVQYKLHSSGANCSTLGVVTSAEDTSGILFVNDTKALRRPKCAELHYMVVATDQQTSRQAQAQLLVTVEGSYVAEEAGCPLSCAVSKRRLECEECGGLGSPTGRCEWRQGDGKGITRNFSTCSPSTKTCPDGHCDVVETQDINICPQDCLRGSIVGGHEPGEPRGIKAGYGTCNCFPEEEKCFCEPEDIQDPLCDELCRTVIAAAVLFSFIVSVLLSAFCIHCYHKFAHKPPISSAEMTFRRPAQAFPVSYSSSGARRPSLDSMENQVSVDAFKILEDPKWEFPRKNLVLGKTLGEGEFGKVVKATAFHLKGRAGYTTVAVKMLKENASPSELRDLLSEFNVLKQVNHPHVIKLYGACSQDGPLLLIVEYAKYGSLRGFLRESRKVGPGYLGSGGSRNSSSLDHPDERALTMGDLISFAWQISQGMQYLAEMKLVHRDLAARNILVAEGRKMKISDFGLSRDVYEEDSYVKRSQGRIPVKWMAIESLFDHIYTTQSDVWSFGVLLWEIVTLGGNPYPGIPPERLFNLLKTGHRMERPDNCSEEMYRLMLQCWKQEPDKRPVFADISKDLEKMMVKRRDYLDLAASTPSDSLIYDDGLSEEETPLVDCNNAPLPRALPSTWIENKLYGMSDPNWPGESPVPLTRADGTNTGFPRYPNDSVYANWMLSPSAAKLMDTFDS
In words: CellTiter-Glo luminescence assay, inhibitory activity against Ba/F3-KIF5B-RET cell. In kind it is cell-based. From the text:
(C) In Vitro Screening Experiment - CellTiter-Glo Luminescence Assay for Testing The inhibitory activity of compounds against Ba/F3-KIF5B-RET cell
• 1. The mammalian cell expression vector containing human KIF5B-RET cDNA was introduced into Ba/F3 cells using the Neon® transfection system method, and the surviving clones screened by puromycin were subjected to cell growth inhibitory function experiments and Western blotting to verify cell lines with stable and high expression of RET. • 2. Cells were cultured in RPMI 1640 medium containing 10% fetal bovine serum, 1% penicillin-streptomycin, and 2 µg/mL puromycin, and then placed in a 37° C., 5% carbon dioxide cell incubator. • 3. The test compound (5 mM stock) was diluted 2.5 folds to […] with 100% dimethyl sulfoxide; and the compound was diluted into 10 concentrations at an equal ratio of 1:3 in a 384-well dilution plate. • 4. 0.2 µL of the serially diluted compound was added to a 384-well cell culture plate (Corning, 3570) using an Echo 550 pipetting system, 2 replicate wells for each concentration, and the final concentration of dimethyl sulfoxide was 0.5% (v/v). The gradient concentrations of the test compound were 5000, 1666.7, 555.5, 185.18, 61.72, 20.57, 6.858, 2.286, 0.764, 0.254 nM. • 5. 40 µL of Ba/F3-KIF5B-RET cell suspension containing 800 cells was added to each well, and incubated for 72 h in a 5% CO2 cell incubator. • 6. 20 µL of Cell Titer-Glo reagent was added to each well of the cell culture plate, and the culture system was then shaken and mixed thoroughly for 2 min to lyse the cells, the cells were then incubated at room temperature for 30 min, and the […] signal values were then read with an Envision 2104 microplate reader. • 7. By fitting the data with XLFit 5.0 based on the parameters formula, the IC50 value was calculated as: • [formula]
On the technique in general: ATP-based viability assays read luminescence as a measure of living cells.

In a further assay the target is VEGFR2 kinase (Homo sapiens, UniProt P35968). In words: HTRF method for testing the inhibitory activity of compounds against VEGFR2. The assay is classed as biochemical.
Sequence of VEGFR2 kinase (P35968 20-1356): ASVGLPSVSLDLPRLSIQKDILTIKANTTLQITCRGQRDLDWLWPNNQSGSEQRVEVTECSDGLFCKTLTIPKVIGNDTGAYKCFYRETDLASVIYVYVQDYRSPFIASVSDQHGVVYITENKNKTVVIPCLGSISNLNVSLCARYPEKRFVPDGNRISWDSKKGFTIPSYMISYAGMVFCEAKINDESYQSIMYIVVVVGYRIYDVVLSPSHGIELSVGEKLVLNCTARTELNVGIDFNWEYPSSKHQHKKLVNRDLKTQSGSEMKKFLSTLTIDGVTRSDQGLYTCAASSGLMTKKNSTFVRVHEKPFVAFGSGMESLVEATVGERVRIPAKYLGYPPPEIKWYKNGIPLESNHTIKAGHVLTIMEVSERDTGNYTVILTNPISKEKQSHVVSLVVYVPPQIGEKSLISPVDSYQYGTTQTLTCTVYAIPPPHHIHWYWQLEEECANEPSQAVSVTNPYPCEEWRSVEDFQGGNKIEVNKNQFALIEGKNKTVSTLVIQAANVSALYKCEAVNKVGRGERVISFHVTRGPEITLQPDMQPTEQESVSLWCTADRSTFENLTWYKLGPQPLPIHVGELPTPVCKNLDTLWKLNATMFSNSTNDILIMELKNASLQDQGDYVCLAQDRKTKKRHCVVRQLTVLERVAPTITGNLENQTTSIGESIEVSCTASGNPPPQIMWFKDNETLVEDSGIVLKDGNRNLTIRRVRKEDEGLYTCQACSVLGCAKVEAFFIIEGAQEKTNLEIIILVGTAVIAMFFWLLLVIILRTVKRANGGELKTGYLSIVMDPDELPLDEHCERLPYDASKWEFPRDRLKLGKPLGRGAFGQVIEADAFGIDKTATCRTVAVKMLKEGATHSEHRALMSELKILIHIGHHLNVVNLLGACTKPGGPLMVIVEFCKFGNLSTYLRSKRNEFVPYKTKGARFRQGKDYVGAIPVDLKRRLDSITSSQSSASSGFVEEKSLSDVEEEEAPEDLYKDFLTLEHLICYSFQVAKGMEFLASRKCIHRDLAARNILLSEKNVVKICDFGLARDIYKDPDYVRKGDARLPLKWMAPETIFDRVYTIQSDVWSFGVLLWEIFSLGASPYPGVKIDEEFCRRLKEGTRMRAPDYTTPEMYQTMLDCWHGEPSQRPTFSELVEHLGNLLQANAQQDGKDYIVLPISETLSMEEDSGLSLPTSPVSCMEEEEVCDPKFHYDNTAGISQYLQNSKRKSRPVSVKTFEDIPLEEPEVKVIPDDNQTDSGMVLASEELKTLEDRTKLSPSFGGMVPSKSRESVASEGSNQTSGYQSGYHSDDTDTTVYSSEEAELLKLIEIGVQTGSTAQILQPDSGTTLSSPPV
The mark [1] stands for this setting: HTRF, read-out: Wild-type RET kinase.
Where [2] appears, read: 72 h, read-out: Ba/F3-KIF5B-RET cell activity.

Like-named read-outs stand apart in the source and are kept apart here.

As to `COc1ccc(CN2C3CC2CN(c2cnc(-c4cc(OCCN5CCC6(CCNC6)CC5)cn5ncc(C#N)c45)cn2)C3)cn1` [Compound 21], the IC50 on Wild-type RET kinase (setting [1]) was 0.72 nM. The GI50 at Ba/F3-KIF5B-RET cell (setting [2]) came to 192 nM.

With `COc1ccc(CN2C3CC2CN(c2cnc(-c4cc(OC(=O)N5CCOCC5)cn5ncc(C#N)c45)cn2)C3)cn1` [Compound 27, 3-cyano-4-(5-(6-((6-methoxypyridin-3-yl)methyl)-3,6-diazabicyclo[3.1.1]heptan-3-yl)pyrazin-2-yl]pyrazolo[1,5-a]pyridin-6-ylmorpholine-4-carboxylate], at Wild-type RET kinase, the IC50 amounted to 15.7 nM. For the same compound, the GI50 on Ba/F3-KIF5B-RET cell (read-out: Ba/F3-KIF5B-RET cell activity, 72 h) was 51.7 nM.

On to `COc1ccc(CN2C3CC2CN(c2cnc(-c4cc(OCCN5CCC6(CCOCC6)CC5)cn5ncc(C#N)c45)cn2)C3)cn1` [Compound 37, 6-(2-(3-oxa-9-azaspiro[5.5]undec-9-yl)ethoxy)-4-(5-(6-((6-methoxypyridin-3-yl)methyl)-3,6-diazabicyclo[3.1.1]heptan-3-yl)pyrazin-2-yl)pyrazolo[1,5-a]pyridine-3-carbonitrile], for which the IC50 was 5.7 nM on Wild-type RET kinase (setting [1]) and 801 nM against VEGFR2 kinase.

As for `COc1ccc(CN2CCN(c3ccc(-c4cc(OCCN5CC6CC6C5)cn5ncc(C#N)c45)cn3)CC2)cn1` (centres unmarked) [Compound 16, 6-(2-(3-azabicyclo[3.1.0]hex-3-yl)ethoxy)-4-(6-(4-((6-methoxypyridin-3-yl)methyl)piperazin-1-yl)pyridin-3-yl)pyrazolo[1,5-a]pyridine-3-carbonitrile], the IC50 at Wild-type RET kinase (setting [1]) was found to be 1.1 nM. Besides, at Ba/F3-KIF5B-RET cell (setting [2]), the GI50 came to 203 nM.

As for `COc1ccc(CN2C3CC2CN(c2cnc(-c4cc(OCCN5CC6(CCCNC6)C5)cn5ncc(C#N)c45)cn2)C3)cn1` [Compound 19, 6-(2-(2,6-diazaspiro[3.5]non-2-yl)ethoxy)-4-(5-(6-((6-methoxypyridin-3-yl)methyl)-3,6-diazabicyclo[3.1.1]heptan-3-yl)pyrazin-2-yl)pyrazolo[1,5-a]pyridine-3-carbonitrile], the IC50 on Wild-type RET kinase (setting [1]) worked out at 0.77 nM. On Ba/F3-KIF5B-RET cell (setting [2]), the GI50 worked out at 183 nM.

In the case of `COc1ccc(CN2C3CC2CN(c2cnc(-c4cc(OCCN5CCC6(CC5)COC6)cn5ncc(C#N)c45)cn2)C3)cn1` [Compound 30, 6-(2-(2-oxa-7-azaspiro[3.5]non-7-yl)ethoxy)-4-(5-(6-((6-methoxypyridin-3-yl)methyl)-3,6-diazabicyclo[3.1.1]heptan-3-yl)pyrazin-2-yl)pyrazolo[1,5-a]pyridine-3-carbonitrile], the IC50 on Wild-type RET kinase (setting [1]) stood at 3.98 nM. For the same compound, the GI50 at Ba/F3-KIF5B-RET cell (setting [2]) is 63.4 nM.

Take `COc1ccc(CN2C3CC2CN(c2cnc(-c4cc(OCCN5CC6(CCCO6)C5)cn5ncc(C#N)c45)cn2)C3)cn1` [Compound 34, 6-(2-(5-oxa-2-azaspiro[3.4]oct-2-yl)ethoxy)-4-(5-(6-((6-methoxypyridin-3-yl)methyl)-3,6-diazabicyclo[3.1.1]heptan-3-yl)pyrazin-2-yl)pyrazolo[1,5-a]pyridine-3-carbonitrile]: the IC50 on Wild-type RET kinase (setting [1]) worked out at 2.04 nM. On Ba/F3-KIF5B-RET cell (setting [2]), the GI50 was 13.8 nM.

For the compound `COc1ccc(CN2CCN(c3ccc(-c4cc(OCCN5CCC6(CCOCC6)CC5)cn5ncc(C#N)c45)cn3)CC2)cn1` [Compound 14, 6-(2-(3-oxa-9-azaspiro[5.5]undec-9-yl)ethoxy)-4-(6-(4-((6-methoxypyridine-3-yl)methyl)piperazin-1-yl)pyridin-3-yl)pyrazolo[1,5-a]pyridine-3-carbonitrile], on Wild-type RET kinase (setting [1]), the IC50 was found to be 1.6 nM. At Ba/F3-KIF5B-RET cell (setting [2]), the GI50 is 260 nM.

With “ethyl 4(6-(4-(6-methoxypyridin-3-yl)piperazin-1-yl)pyridin-3-yl)-6-(1-methyl-1H-pyrazol-4-yl)H-pyrazolo[1,5-a]pyridine-3-carboxylate [Compound 1]”, the IC50 on Wild-type RET kinase (setting [1]) was 3.1 nM. For the same compound, the GI50 on Ba/F3-KIF5B-RET cell (setting [2]) turned out to be 271 nM.

Take `COc1ccc(CN2CCN(c3ccc(-c4cc(-c5cnn(C)c5)cn5ncc(C(N)=O)c45)cn3)CC2)cn1` [Compound 8, 4-(6-(4-((6-methoxypyridin-3-yl)methyl)piperazin-1-yl)pyridin-3-yl)-6-(1-methyl-1H-pyrazol-4-yl)pyrazolo[1,5-a]pyridine-3-carboxamide]: the IC50 on Wild-type RET kinase (setting [1]) is 250 nM; against VEGFR2 kinase it was at least 5000 nM.

Turning to `COc1ccc(CN2C3CC2CN(c2cnc(-c4cc(OCCN5CC6CC(C5)N6)cn5ncc(C#N)c45)cn2)C3)cn1` [Compound 22, 6-(2-(3,6-diazabicyclo[3.1.1]heptan-3-yl)ethoxy)-4-(5-(6-((6-methoxypyridine-3-yl)methyl)-3,6-diazabicyclo[3.1.1]heptan-3-yl)pyrazin-2-yl)pyrazolo[1,5-a]pyridine-3-carbonitrile], at Wild-type RET kinase (setting [1]), the IC50 was determined as 1.24 nM. For the same compound, the GI50 at Ba/F3-KIF5B-RET cell (setting [2]) came out at 151 nM.

For `COc1ccc(CN2C3CC2CN(c2cnc(-c4cc(OCCN5CCC6(CCCNC6=O)CC5)cn5ncc(C#N)c45)cn2)C3)cn1` [Compound 35, 4-(5-(6-((6-methoxypyridin-3-yl)methyl)-3,6-diazabicyclo[3.1.1]heptan-3-yl)pyrazin-2-yl)-6-(2-(-1-oxo-2,9-diazaspiro[5.5]undecan-9-yl)ethoxy)pyrazolo[1,5-a]pyridine-3-carbonitrile], the IC50 at Wild-type RET kinase (setting [1]) came to 3.08 nM. The GI50 at Ba/F3-KIF5B-RET cell (setting [2]) came out at 81.5 nM.

`COc1ccc(CN2C3CC2CN(c2cnc(-c4cc(OCCN5CCC6(COC6)C5)cn5ncc(C#N)c45)cn2)C3)cn1` [Compound 20, 6-(2-(2-oxa-6-azaspiro[3.4]oct-6-yl)ethoxy)-4-(5-(6-((6-methoxypyridin-3-yl)methyl)-3,6-diazabicyclo[3.1.1]heptan-3-yl)pyrazin-2-yl)pyrazolo[1,5-a]pyridine-3-carbonitrile]: at Wild-type RET kinase (setting [1]), the IC50 was 2.63 nM. Besides, the GI50 on Ba/F3-KIF5B-RET cell (setting [2]) was determined as 19.1 nM.

Turning to `COc1ccc(CN2C3CC2CN(c2cnc(-c4cc(NCc5ccccn5)cn5ncc(C#N)c45)cn2)C3)cn1` [Compound 28, 4-(5-(6-((6-methoxypyridin-3-yl)methyl)-3,6-diazabicyclo[3.1.1]heptan-3-yl)pyrazin-2-yl)-6-((pyridin-2-ylmethyl)amino)pyrazolo[1,5-a]pyridine-3-carbonitrile], the IC50 on Wild-type RET kinase (setting [1]) came to 1.3 nM. Further, the GI50 on Ba/F3-KIF5B-RET cell (setting [2]) amounted to 12.6 nM.

Turning to `COc1ccc(CN2CCN(c3ccc(-c4cc(OCCN5CC6(COC6)C5)cn5ncc(C#N)c45)cn3)CC2)cn1` [Compound 13, 6-(2-(2-oxa-6-azaspiro[3.3]hept-6-yl)ethoxy)-4-(6-(4-((6-methoxypyridin-3-yl)methyl)piperazin-1-yl)pyridin-3-yl)pyrazolo[1,5-a]pyridine-3-carbonitrile], the IC50 at Wild-type RET kinase (setting [1]) is 0.8 nM. Also, at Ba/F3-KIF5B-RET cell (setting [2]), the GI50 came to 224 nM.

For the compound `COc1ccc(CN2C3CC2CN(c2cnc(-c4cc(OCCN5CCC6NCCC6C5)cn5ncc(C#N)c45)cn2)C3)cn1` (centres unmarked) [Compound 18, 4-(5-(6-((6-methoxypyridin-3-yl)methyl)-3,6-diazabicyclo[3.1.1]hept-3-yl)pyrazin-2-yl)-6-(2-(octahydro-5H-pyrrolo[3,2-c]pyridin-5-yl)ethoxy)pyrazolo[1,5-a]pyridine-3-carbonitrile], the IC50 on Wild-type RET kinase (setting [1]) was 0.5 nM. Also, the GI50 at Ba/F3-KIF5B-RET cell (setting [2]) stood at 123 nM.

In the case of `COc1ccc(CN2C3CC2CN(c2cnc(-c4cc(OCCN5C6CCC5COC6)cn5ncc(C#N)c45)cn2)C3)cn1` [Compound 31, 6-(2-(3-oxa-8-azabicyclo[3.2.1]oct-8-yl)ethoxy)-4-(5-(6-((6-methoxypyridine-3-yl)methyl)-3,6diazabicyclo[3.1.1]heptan-3-yl)pyrazin-2-yl)pyrazolo[1,5-a]pyridine-3-carbonitrile], the IC50 on Wild-type RET kinase (setting [1]) was determined as 1.4 nM. The GI50 on Ba/F3-KIF5B-RET cell (setting [2]) is 5.1 nM.

On to `COc1ccc(CN2C3CC2CN(c2cnc(-c4cc(OCCN5CCC6(CC5)CC(=O)N6)cn5ncc(C#N)c45)cn2)C3)cn1` [Compound 32, 4-(5-(6-((6-methoxypyridin-3-yl)methyl)-3,6-diazabicyclo[3.1.1]heptan-3-yl)pyrazin-2-yl)-6-(2-(2-oxo-1,7-diazaspiro[3.5]non-7-yl)ethoxy)pyrazolo[1,5-a]pyridine-3-carbonitrile], for which the IC50 at Wild-type RET kinase (setting [1]) stood at 4.14 nM. For the same compound, the GI50 on Ba/F3-KIF5B-RET cell (setting [2]) came out at 83.3 nM.

In the case of `COc1ccc(CN2C3CC2CN(c2ccc(-c4cc(NCCO)cn5ncc(C#N)c45)cn2)C3)cn1` [Compound 51, 6-((2-hydroxyethyl)amino)-4-(6-(6-((6-methoxypyridin-3-yl)methyl)-3,6-diazabicyclo[3.1.1]hept-3-yl)pyridin-3-yl)pyrazolo[1,5-a]pyridine-3-carbonitrile], the figures for the IC50 on Wild-type RET kinase (setting [1]) and at VEGFR2 kinase were 0.22 nM and 19.3 nM, respectively.
